Reference: patent US20090221010A1, “Methods for Prediction and Prognosis of Cancer, and Monitoring Cancer Therapy” (priority 2005, published 2009)

System: non-small cell lung cancer
Assay: Tumor shrinkage measured radiologically in non-small cell lung cancer patients treated with Sorafenib
Type: in vivo, human
Details: non-small cell lung carcinoma; for mean % change in tumor size: measured radiologically

CNC(=O)c1cc(Oc2ccc(NC(=O)Nc3ccc(Cl)c(C(F)(F)F)c3)cc2)ccn1 [Sorafenib]
average tumor shrinkage (patients who showed stable disease, Sorafenib treatment): 5.1% | average tumor growth (patients whose disease progressed, Sorafenib treatment): 20.6% | mean % change in tumor size (patients with Progressive Disease in spite of Sorafenib treatment): 20.6% | mean % change in tumor size (patients with Stable Disease on Sorafenib treatment): −5.1%
